Results from patent US10894777B2, “TG2 inhibitor piperazine compounds and uses thereof” (UNIVERSITY OF OTTAWA, priority 2016, dated 2021).

Assays:
[1] = biological target: T1, purified human TG2 (Homo sapiens, UniProt P21980); experiment: Native PAGE of TG2 conformation; format: biochemical; details: NC9 120 μM, VA4 40 μM, VA5 40 μM with calcium, 90 min
T1 sequence (P21980 1-687): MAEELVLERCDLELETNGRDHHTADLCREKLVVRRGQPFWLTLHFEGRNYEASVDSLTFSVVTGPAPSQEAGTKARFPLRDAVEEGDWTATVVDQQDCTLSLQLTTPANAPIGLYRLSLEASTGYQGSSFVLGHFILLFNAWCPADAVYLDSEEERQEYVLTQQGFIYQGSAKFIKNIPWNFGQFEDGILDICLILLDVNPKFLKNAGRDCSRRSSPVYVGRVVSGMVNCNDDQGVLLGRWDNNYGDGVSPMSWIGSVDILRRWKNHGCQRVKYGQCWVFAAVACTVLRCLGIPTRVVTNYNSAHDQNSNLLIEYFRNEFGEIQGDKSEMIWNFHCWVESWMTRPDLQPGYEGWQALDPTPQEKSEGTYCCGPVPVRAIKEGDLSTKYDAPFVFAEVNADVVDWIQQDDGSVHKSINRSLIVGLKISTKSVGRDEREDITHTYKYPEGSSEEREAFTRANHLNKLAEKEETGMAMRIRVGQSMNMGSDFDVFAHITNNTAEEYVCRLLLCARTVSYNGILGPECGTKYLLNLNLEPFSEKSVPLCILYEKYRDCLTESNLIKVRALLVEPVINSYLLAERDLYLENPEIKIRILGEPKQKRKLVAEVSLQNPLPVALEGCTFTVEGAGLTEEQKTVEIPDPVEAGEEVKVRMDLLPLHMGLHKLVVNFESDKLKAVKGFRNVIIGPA
Description: Following this incubation, samples were run on polyacrylamide gel under non-denaturing conditions and in the presence of […] and magnesium. The gel was Coomassie stained and a picture of the gel is shown.
Native PAGE. Native gel electrophoresis experiments were performed using a method similar to those described previously (Begg, G. E. et al., Proc. Natl. Acad. Sci. U.S.A. 103: 19683-19688, 2006; Pinkas, D. M. et al., PLoS Biol. 5: e327, 2007). Briefly, TG2 or inhibited TG2 (2.5 μM) was incubated for 1.5 h at room temperature in pre-incubation buffer (50 mM Tris, 5 mM DTT, 0.5 mM EDTA) at pH 7.0 with or without 100 μM GTP/1.0 mM MgCl2 or 5.0 mM CaCl2. Laemmli native loading buffer was added (1:1) and 1.5 μg of TG2 was loaded onto a 4-20% Tris-HCl ReadyGel (Bio-Rad) using Tris-glycine as the running buffer with 100 μM GTP/1.0 mM MgCl2. For 90 min, 120 V was applied at 4° C. The gel was stained with 0.5% Coomassie brilliant blue R-250 in 40% methanol/10% acetic acid and destained in 10% methanol/10% acetic acid.

[2] = biological target: T2, TG2 (Homo sapiens, UniProt P21980); experiment: In situ transglutaminase assay, ionomycin-activated, GBM cell lines; format: cell-based; design: endogenous in cells; details: 10 μM; for ionomycin-activated in situ transamidating activity of TG2: U87 cells, 1 h pretreatment, 1 μM ionomycin 3 h
T2 sequence (P21980 1-687): T1 sequence (P21980 1-687)
Description: In situ transglutaminase assay. In situ transamidating activity measurement was conducted as described previously (Gundemir, S. and Johnson, G. V., PLoS ONE 4(7):e6123, 2009) with slight modifications. […] In a high protein binding 96-well plate (Falcon), 10 μg of protein was loaded in a total of 50 μL homogenization buffer and the plate was incubated at 4° C. overnight. The next day, 200 μL of blocking buffer (5% BSA, 0.01% Tween 20 in borate saline [100 mM boric acid, 20 mM Na-borate and 0.76 mM NaCl]) was added to each sample and the plate was incubated at 37° C. for 1 h. Each well was then rinsed 3 times with rinsing buffer (1% BSA, 0.01% Tween 20 in borate saline) and incubated with 1 μg/μL Horseradish peroxidase conjugated neutravidin (Pierce) in a total of 100 μL rinsing buffer at room temperature for 1 h. […] After 20 minutes, the reaction was stopped by addition of 50 μL of 1 M sulfuric acid and read at 493 nm wavelength.

[3] = tested on: TG2 fusion protein mCer-TG2-YFP; experiment: Fluorescence lifetime imaging (FLIM) of TG2 conformation, HaCaT cells; format: cell-based, human; details: 5 μM
Description: HaCaT cells were electroporated with mCer-TG2 or […] and then treated with 0 or 5 μM of the indicated inhibitor and fluorescent lifetime was monitored. […] HaCaT cells were preloaded with fluorescein cadaverine, treated with the indicated inhibitor and then challenged with calcium ionophore, washed and assayed for FC incorporation. […] The beads were then washed, boiled in Laemmli buffer and electrophoresed for immunoblot detection of TG2. Cell equivalent quantities of total and bound samples were electrophoresed to facilitate comparison of GTP bound versus total. […] Experiments were performed as described in FIGS. 31 (F) and (G).
Fluorescence lifetime imaging. Fluorescence lifetime images were acquired using FLIM system (Alba 5 from ISS). […] Emission was observed through bandpass filter 480/35 nm (Chroma Technology) and detected by a photomultiplier H7422-40 (Hamamatsu). FLIM data were acquired using time-domain modality (SPC-830 TCSPC module from Becker and Hickl GmbH). […] To account for intensity heterogeneity within single intensity images, two to five consecutive scans were acquired and summed to build FLIM intensity image for lifetime analysis. […] FLIM data were analyzed using VistaVision Suite software (Vista v.213 from ISS). Lifetime images were generated by fitting data using single exponential intensity decay model. Intensity threshold for lifetime analysis was set of at least 3-fold above the intensity of dim cells and fitting procedure was performed for binned pixels at level of 3 (7×7 pixels). Lifetime distribution within image is represented with histogram showing pixel frequency of specific lifetime. The average lifetime values with standard deviations were calculated based on all processed pixels in lifetime image. FRET values were calculated according to the formula ET=1−(τDA/τD), where τD is the lifetime of donor (mCer-TG2) and τDA is the lifetime of donor-acceptor pair (mCer-TG2—YFP).

SMILES | conformation of inhibitor-bound TG2 [1] | in situ transamidation activity of TG2 induced by ionomycin ([2]; U87, 1321N, U251, T98G cell lines) | ionomycin-activated in situ transamidating activity of TG2 [2] | fluorescence lifetime / TG2 structure [3]
C=CC(=O)NCCCC[C@H](NC(=O)OCc1ccccc1)C(=O)NCCOCCOCCNS(=O)(=O)c1cccc2c(N(C)C)cccc12 [NC9] | open conformation | completely inhibited | inhibit ionomycin-activated transamidating activity of TG2 | increased fluorescence lifetime
C=CC(=O)NCCCC[C@H](NC(=O)OCc1ccccc1)C(=O)N1CCN(S(=O)(=O)c2cccc3c(N(C)C)cccc23)CC1 [VA4, (S)-benzyl(6-acrylamido-1-(4-((5-(dimethylamino)naphthalen-1-yl)sulfonyl)piperazin-1-yl)-1-oxohexan-2-yl)carbamate] | open conformation | – | inhibit ionomycin-activated transamidating activity of TG2 | increased fluorescence lifetime
C=CC(=O)NCCCC[C@H](NC(=O)OCc1ccccc1)C(=O)N1CCN(C(=O)c2cc3ccc(O)cc3oc2=O)CC1 [VA5, (S)-Benzyl(6-acrylamido-1-(4-(7-hydroxy-2-oxo-2H-chromene-3-carbonyl)piperazin-1-yl)-1-oxohexan-2-yl)carbamate] | open conformation | – | inhibit ionomycin-activated transamidating activity of TG2 | increased fluorescence lifetime
